Data published in patent publication EP4238971A1, “SUBSTITUTED ISOXAZOLINE DERIVATIVES” (BASF SE, priority 2022, dated 2023).

What follows are compounds tested on Anthonomus grandis (assay: Boll weevil (Anthonomus grandis) control, insect diet in 96-well microtiter plates). Conditions: 2500ppm; egg and larval mortality visually assessed after 5 days.
Type: in vivo
Method: (§1) If not otherwise specified, the test solutions were prepared as follows: The active compound was dissolved at the desired concentration in a mixture of 1:1 (vol:vol) distilled water:acetone. The test solution was prepared at the day of use.
(§2) Test solutions were prepared in general at a concentration of 2500ppm (wt/vol).
B.1. Boll weevil (Anthonomus grandis)
For evaluating control of boll weevil, the test unit consisted of 96-well-microtiter plates containing an insect diet and 5-10 A. grandis eggs.
The compounds were formulated using a solution containing 75% v/v water and 25% v/v DMSO. Different concentrations of formulated compounds were sprayed onto the insect diet at 5µl, using a custom-built micro atomizer, at two replications.
After application, microtiter plates were incubated at about 25 ± 1°C and about 75 ± 5 % relative humidity for 5 days. Egg and larval mortality were then visually assessed.
In the case of `CCN(C1=NOC(c2cc(Cl)c(F)c(Cl)c2)(C(F)(F)F)C1)c1ccc(Cl)c(-n2cncn2)c1` (stereo not shown) [I-19], the “mortality in comparison with untreated controls” value (from here on “mortality in comparison”) is reported as “at least 75%”.

These compounds were tested on Myzus persicae (assay: Green peach aphid (Myzus persicae), mixed life stages, systemic test via artificial diet under membrane). Conditions: 2500ppm; aphid mortality visually assessed after 3 days.
Type: in vivo
Method: as §1, §2
B.2. Green peach aphid (Myzus persicae) (mixed life stages)
For evaluating control of Green Peach Aphid through systemic means the test unit consisted of 96-well-microtiter plates containing liquid artificial diet under an artificial membrane. The compounds were formulated using a solution containing 75% v/v water and 25% v/v DMSO. Different concentrations of formulated compounds were pipetted into the aphid diet, using a custom-built pipette, at two replications. After application, 5 - 8 adult aphids were placed on the artificial membrane inside the microtiter plate wells. The aphids were then allowed to suck on the treated aphid diet and incubated at about 23 ± 1°C and about 50 ± 5 % relative humidity for 3 days. Aphid mortality and fecundity was then visually assessed.
`CCN(C1=NOC(c2cc(Cl)c(F)c(Cl)c2)(C(F)(F)F)C1)c1ccc(Cl)c(-n2cncn2)c1` (stereo not shown) [I-19] was tested, and the “mortality in comparison” value was “at least 75%”.

What follows are compounds tested on Heliothis virescens (assay: Tobacco budworm (Heliothis virescens) control, insect diet in 96-well microtiter plates). Conditions: 2500ppm; egg and larval mortality visually assessed after 5 days.
Type: in vivo
Method: as §1, §2
B.3. Tobacco budworm (Heliothis virescens)
For evaluating control of Tobacco Budworm, the test unit consisted of 96-well-microtiter plates containing an insect diet and 15-25 H. virescens eggs. The compounds were formulated using a solution containing 75% v/v water and 25% v/v DMSO. Different concentrations of formulated compounds were sprayed onto the insect diet at 10µl, using a custom-built micro atomizer, at two replications. After application, microtiter plates were incubated at about 28 ± 1°C and about 80 ± 5 % relative humidity for 5 days. Egg and larval mortality was then visually assessed.
`Fc1c(Cl)cc(C2(C(F)(F)F)CC(Nc3ccc(Cl)c(-n4ccc(C(F)(F)F)n4)c3)=NO2)cc1Cl` (stereo not shown) [I-15] was tested, and the “mortality in comparison” value was “at least 75%”.
In the case of `CCN(C1=NOC(c2cc(Cl)c(F)c(Cl)c2)(C(F)(F)F)C1)c1ccc(Cl)c(-n2cncn2)c1` (stereo not shown) [I-19], the “mortality in comparison” value is reported as “at least 75%”.
With `CCOC(=O)N(C1=NOC(c2cc(Cl)c(F)c(Cl)c2)(C(F)(F)F)C1)c1ccc(Cl)c(-n2cncn2)c1` (stereo not shown) [I-25] the “mortality in comparison” value was “at least 75%”.

The compounds below were run on Aedes aegypti (assay: whole plant or invertebrate). Conditions: 2500ppm; larval mortality visually assessed after 2 days.
Type: in vivo
Method: as §1, §2
B.4. Yellow fever mosquito (Aedes aegypti)
For evaluating control of Yellow Fever Mosquito, the test unit consisted of 96-well-microtiter plates containing 200µl of tap water per well and 5-15 freshly hatched A. aegypti larvae. The active compounds were formulated using a solution containing 75% (v/v) water and 25% (v/v) DMSO. Different concentrations of formulated compounds or mixtures were sprayed onto the insect diet at 2.5µl, using a custom-built micro atomizer, at two replications.
After application, microtiter plates were incubated at 28 ± 1°C, 80 ± 5 % RH for 2 days. Larval mortality was then visually assessed.
In the case of `Fc1c(Cl)cc(C2(C(F)(F)F)CC(Nc3ccc(Cl)c(-n4ccc(C(F)(F)F)n4)c3)=NO2)cc1Cl` (stereo not shown) [I-15], the “mortality in comparison” value is reported as “at least 75%”.
`CCN(C1=NOC(c2cc(Cl)c(F)c(Cl)c2)(C(F)(F)F)C1)c1ccc(Cl)c(-n2cncn2)c1` (stereo not shown) [I-19] was tested, and the “mortality in comparison” value was “at least 75%”.
In the case of `CCOC(=O)N(C1=NOC(c2cc(Cl)c(F)c(Cl)c2)(C(F)(F)F)C1)c1ccc(Cl)c(-n2cncn2)c1` (stereo not shown) [I-25], the “mortality in comparison” value is reported as “at least 75%”.

The compounds below were run on Plutella xylostella (assay: Diamond back moth (Plutella xylostella), cabbage leaf disc dip test). Conditions: 300ppm; 3rd instar larvae; mortality recorded 72 hours after treatment.
Type: in vivo
Method: B.5. Diamond back moth (Plutella xylostella)
The active compound was dissolved at the desired concentration in a mixture of 1:1 (vol:vol) distilled water: acetone. Surfactant (Kinetic) was added at a rate of 0.01% (vol/vol). The test solution was prepared at the day of use. Cabbage leaf discs (60mm in diameter) were dipped in test solution and air-dried. Treated leaves were placed in petri dishes lined with moistened filter paper and inoculated with ten 3rd instar larvae. Mortality was recorded 72 hours after treatment. Feeding damages were also recorded using a scale of 0-100%.
In the case of `N#Cc1ccc(NC2=NOC(c3ccc(F)c(C(F)(F)F)c3)(C(F)(F)F)C2)cc1-n1cncn1` (stereo not shown) [I-8], the “mortality in comparison” value is reported as “at least 75%”.
In the case of `CCN(C1=NOC(c2cc(Cl)c(F)c(Cl)c2)(C(F)(F)F)C1)c1ccc(Cl)c(-n2cncn2)c1` (stereo not shown) [I-19], the “mortality in comparison” value is reported as “at least 75%”.
In the case of `CCOC(=O)N(C1=NOC(c2cc(Cl)c(F)c(Cl)c2)(C(F)(F)F)C1)c1ccc(Cl)c(-n2cncn2)c1` (stereo not shown) [I-25], the “mortality in comparison” value is reported as “at least 75%”.

These compounds were tested on Dichromothrips corbetti (assay: Orchid thrips (Dichromothrips corbetti), floral-immersion technique). Conditions: 300ppm; adult thrips; mortality recorded 72 hours after treatment.
Type: in vivo
Method: B.6. Orchid thrips (Dichromothrips corbetti)
Dichromothrips corbetti adults used for bioassay were obtained from a colony maintained continuously under laboratory conditions. For testing purposes, the test compound was diluted in a 1:1 mixture of acetone:water (vol:vol), plus Kinetic at a rate of 0.01% v/v.
Thrips potency of each compound was evaluated by using a floral-immersion technique. Each orchid petal was dipped into treatment solution and allowed to dry in Petri dishes. Treated petals were placed into individual re-sealable plastic along with about 20 adult thrips. All test arenas were held under dark condition and a temperature of about 28°C for duration of the assay. The percent mortality was recorded 72 hours after treatment.
In the case of `N#Cc1ccc(NC2=NOC(c3ccc(F)c(C(F)(F)F)c3)(C(F)(F)F)C2)cc1-n1cncn1` (stereo not shown) [I-8], the “mortality in comparison” value is reported as “at least 75%”.
With `Fc1c(Cl)cc(C2(C(F)(F)F)CC(Nc3ccc(Cl)c(-n4ccc(C(F)(F)F)n4)c3)=NO2)cc1Cl` (stereo not shown) [I-15] the “mortality in comparison” value was “at least 75%”.
In the case of `CCN(C1=NOC(c2cc(Cl)c(F)c(Cl)c2)(C(F)(F)F)C1)c1ccc(Cl)c(-n2cncn2)c1` (stereo not shown) [I-19], the “mortality in comparison” value is reported as “at least 75%”.
`CCOC(=O)N(C1=NOC(c2cc(Cl)c(F)c(Cl)c2)(C(F)(F)F)C1)c1ccc(Cl)c(-n2cncn2)c1` (stereo not shown) [I-25] was tested, and the “mortality in comparison” value was “at least 75%”.

What follows are compounds tested on Spodoptera eridania (assay: Southern armyworm (Spodoptera eridania), 2nd instar larvae, sprayed lima bean plants). Conditions: 300ppm; 2nd instar larvae; assessed 4 days after treatment.
Type: in vivo
Method: B.7. Southern armyworm (Spodoptera eridania), 2nd instar larvae
The active compounds were formulated by a Tecan liquid handler in 100% cyclohexanone as a 10'000 ppm solution supplied in tubes. The 10'000 ppm solution was serially diluted in 100% cyclohexanone to make interim solutions. These served as stock solutions for which final dilutions were made by the Tecan in 50% acetone:50% water (v/v) into 10 or 20ml glass vials. A nonionic surfactant (Kinetic®) was included in the solution at a volume of 0.01% (v/v). The vials were then inserted into an automated electrostatic sprayer equipped with an atomizing nozzle for application to plants/insects. Lima bean plants (variety Sieva) were grown 2 plants to a pot and selected for treatment at the 1st true leaf stage. Test solutions were sprayed onto the foliage by an automated electrostatic plant sprayer equipped with an atomizing spray nozzle. The plants were dried in the sprayer fume hood and then removed from the sprayer. Each pot was placed into perforated plastic bags with a zip closure. Ten to 11 armyworm larvae were placed into the bag and the bags zipped closed. Test plants were maintained in a growth room at about 25°C and about 20-40% relative humidity for 4 days, avoiding direct exposure to fluorescent light (14:10 light:dark photo-period) to prevent trapping of heat inside the bags. Mortality and reduced feeding were assessed 4 days after treatment, compared to untreated control plants.
For `N#Cc1ccc(NC2=NOC(c3ccc(F)c(C(F)(F)F)c3)(C(F)(F)F)C2)cc1-n1cncn1` (stereo not shown) [I-8], the “mortality in comparison” value was “at least 75%”.
For `Fc1c(Cl)cc(C2(C(F)(F)F)CC(Nc3ccc(Cl)c(-n4ccc(C(F)(F)F)n4)c3)=NO2)cc1Cl` (stereo not shown) [I-15], the “mortality in comparison” value was “at least 75%”.
In the case of `CCN(C1=NOC(c2cc(Cl)c(F)c(Cl)c2)(C(F)(F)F)C1)c1ccc(Cl)c(-n2cncn2)c1` (stereo not shown) [I-19], the “mortality in comparison” value is reported as “at least 75%”.
With `CCOC(=O)N(C1=NOC(c2cc(Cl)c(F)c(Cl)c2)(C(F)(F)F)C1)c1ccc(Cl)c(-n2cncn2)c1` (stereo not shown) [I-25] the “mortality in comparison” value was “at least 75%”.

Each compound was assayed on Bemisia argentifolii (assay: Silverleaf whitefly (Bemisia argentifolii) adults, sprayed cotton plants). Conditions: 300 ppm; adults; assessed 3 days after treatment.
Type: in vivo
Method: B.8. Silverleaf whitefly (Bemisia argentifolii) (adults)
The active compounds were formulated by a Tecan liquid handler in 100% cyclohexanone as a 10,000-ppm solution supplied in tubes. The 10,000-ppm solution was serially diluted in 100% cyclohexanone to make interim solutions. These served as stock solutions for which final dilutions were made by the Tecan in 50% acetone:50% water (v/v) into 5 or 10ml glass vials. A nonionic surfactant (Kinetic®) was included in the solution at a volume of 0.01% (v/v). The vials were then inserted into an automated electrostatic sprayer equipped with an atomizing nozzle for application to plants/insects. Cotton plants at the cotyledon stage (one plant per pot) were sprayed by an automated electrostatic plant sprayer equipped with an atomizing spray nozzle. The plants were dried in the sprayer fume hood and then removed from the sprayer. Each pot was placed into a plastic cup and about 10 to 12 whitefly adults (approximately 3-5 days old) were introduced. The insects were collected using an aspirator and a nontoxic Tygon® tubing connected to a barrier pipette tip. The tip, containing the collected insects, was then gently inserted into the soil containing the treated plant, allowing insects to crawl out of the tip to reach the foliage for feeding. Cups were covered with a reusable screened lid. Test plants were maintained in a growth room at about 25°C and about 20-40% relative humidity for 3 days, avoiding direct exposure to fluorescent light (14:10 light:dark photoperiod) to prevent trapping of heat inside the cup. Mortality was assessed 3 days after treatment, compared to untreated control plants.
In the case of `N#Cc1ccc(NC2=NOC(c3ccc(F)c(C(F)(F)F)c3)(C(F)(F)F)C2)cc1-n1cncn1` (stereo not shown) [I-8], the “mortality in comparison” value is reported as “at least 75%”.
With `Fc1c(Cl)cc(C2(C(F)(F)F)CC(Nc3ccc(Cl)c(-n4ccc(C(F)(F)F)n4)c3)=NO2)cc1Cl` (stereo not shown) [I-15] the “mortality in comparison” value was “at least 75%”.
For `CCOC(=O)N(C1=NOC(c2cc(Cl)c(F)c(Cl)c2)(C(F)(F)F)C1)c1ccc(Cl)c(-n2cncn2)c1` (stereo not shown) [I-25], the “mortality in comparison” value was “at least 75%”.
